Test results as given in patent US9695155B2, “Herbicidal substituted pyrimidinyloxy benzene compounds” (E. I. DU PONT DE NEMOURS AND COMPANY, priority 2013, dated 2017).

Assays:
[1] = system: johnsongrass; assay: Test C preemergence; type: in vivo, Sorghum halepense; conditions: Sorghum halepense, pre-emergence
From the text: (§1) Seeds of plant species selected from blackgrass (Alopecurus myosuroides), Italian ryegrass (Lolium multiflorum), wheat, winter (winter wheat, Triticum aestivum), galium (catchweed bedstraw, Galium aparine), corn (Zea mays), large (Lg) crabgrass (Digitaria sanguinalis), giant foxtail (Setaria faberii), johnsongrass (Sorghum halepense), lambsquarters (Chenopodium album), morningglory (Ipomoea coccinea), yellow nutsedge (Cyperus esculentus), pigweed (Amaranthus retroflexus), ragweed (common ragweed, Ambrosia elatior), soybean (Glycine max), barnyardgrass (Echinochloa crus-galli), oilseed rape (Brassica napus), waterhemp (common waterhemp, Amaranthus rudis), kochia (Kochia scoparia), wild oat (Avena fatua), surinam grass (Brachiaria decumbens), foxtail, green (green foxtail, Setaria viridis), goosegrass (Eleusine indica), bromegrass, downy (downy bromegrass, Bromus tectorum), nightshade (eastern black nightshade, Solanum ptycanthum), cocklebur (common cocklebur, Xanthium strumarium), cupgrass, woolly (woolly cupgrass, Eriochloa villosa), bermudagrass (Cynodon dactylon), sunflower, (common oilseed sunflower, Helianthus annuus), Russian thistle (Salsola kali), and velvetleaf (Abutilon theophrasti) were planted into a blend of loam soil and sand and treated preemergence with test chemicals formulated in a non-phytotoxic solvent mixture which included a surfactant.
(§2) At the same time, plants selected from these crop and weed species and also barley, winter (winter barley, Hordeum vulgare), windgrass (Apera spica-venti), chickweed (common chickweed, Stellaria media), deadnettle (henbit deadnettle, Lamium amplexicaule), and canarygrass (littleseed canarygrass, Phalaris minor) were planted in pots containing Redi-Earth® planting medium (Scotts Company, 14111 Scottslawn Road, Marysville, Ohio 43041) comprising spaghnum peat moss, vermiculite, wetting agent and starter nutrients and treated with postemergence applications of test chemicals formulated in the same manner. Plants ranged in height from 2 to 18 cm (1- to 4-leaf stage) for postemergence treatments. Treated plants and controls were maintained in a greenhouse for 13 to 15 days, after which time all species were compared to controls and visually evaluated. Plant response ratings, summarized in Table C, are based on a scale of 0 to 100 where 0 is no effect and 100 is complete control. A dash (-) response means no test result.

[2] = system: wheat, winter; assay: Test C preemergence; type: in vivo, Triticum aestivum; conditions: Triticum aestivum, pre-emergence
From the text: as §1, §2

[3] = system: Italian ryegrass; assay: Test C preemergence; type: in vivo, Lolium multiflorum; conditions: Lolium multiflorum, pre-emergence
Outline: (§3)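 Preemergence: seeds sown in a loam soil–sand blend and sprayed with test chemical in a non-phytotoxic solvent mixture containing surfactant. Postemergence: plants at 2 to 18 cm (1- to 4-leaf stage) in peat-based medium, treated with the same formulation. Greenhouse 13 to 15 days, then visual rating 0 (no effect) to 100 (complete control).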

[4] = system: velvetleaf; assay: Test A postemergence; type: in vivo, Abutilon theophrasti; conditions: Abutilon theophrasti, post-emergence, 240 h
Outline: (§4)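 Injury scores run from 0, no effect, to 100, complete control, judged by eye against untreated plants roughly 10 days after treatment. Chemicals carried a surfactant in a non-phytotoxic solvent and went onto loam–sand soil preemergence or onto one- to two-leaf seedlings postemergence.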

[5] = system: johnsongrass; assay: Test C postemergence; type: in vivo, Sorghum halepense; conditions: Sorghum halepense, post-emergence
Outline: as §3

[6] = system: corn; assay: Test C postemergence; type: in vivo, Zea mays; conditions: Zea mays, post-emergence
Outline: as §3

[7] = system: wheat, winter; assay: Test C postemergence; type: in vivo, Triticum aestivum; conditions: Triticum aestivum, post-emergence
Outline: as §3

[8] = system: corn; assay: Test A postemergence; type: in vivo, Zea mays; conditions: Zea mays, post-emergence, 240 h
Outline: as §4

[9] = system: large (Lg) crabgrass; assay: Test C postemergence; type: in vivo, Digitaria sanguinalis; conditions: Digitaria sanguinalis, post-emergence
Outline: as §3

[10] = system: corn; assay: Test C preemergence; type: in vivo, Zea mays; conditions: Zea mays, pre-emergence
Outline: as §3

[11] = system: giant foxtail; assay: Test C postemergence; type: in vivo, Setaria faberii; conditions: Setaria faberi, post-emergence
Outline: as §3

[12] = system: large (Lg) crabgrass; assay: Test A preemergence; type: in vivo, Digitaria sanguinalis; conditions: Digitaria sanguinalis, pre-emergence, 240 h
Outline: as §4

[13] = system: yellow nutsedge; assay: Test C postemergence; type: in vivo, Cyperus esculentus; conditions: Cyperus, post-emergence
Outline: as §3

[14] = system: barnyardgrass; assay: Test A postemergence; type: in vivo, Echinochloa crus-galli; conditions: Echinochloa crus-galli, post-emergence, 240 h
Outline: as §4

[15] = system: yellow nutsedge; assay: Test C preemergence; type: in vivo, Cyperus esculentus; conditions: Cyperus, pre-emergence
From the text: as §1, §2

N#Cc1cccc(Oc2ncc(Cl)cn2)c1-n1cc(Br)cn1 [Compound 52, 2-(4-bromo-1H-pyrazol-1-yl)-3-[(5-chloro-2-pyrimidinyl)oxy]benzonitrile] was tested, and the pest or weed control at 62 g/ha ([1]; 62 g ai/ha, preemergence, scale 0 (no effect) to 100 (complete control), read-out: Johnsongrass plant response rating) was 25%, the pest or weed control at 125 g/ha ([1]; 125 g ai/ha, preemergence, scale 0 (no effect) to 100 (complete control), read-out: Johnsongrass plant response rating) was 90% and the pest or weed control at 250 g/ha ([1]; 250 g ai/ha, preemergence, scale 0 (no effect) to 100 (complete control), read-out: Johnsongrass plant response rating) was 100%. It also gave a pest or weed control at 31 g/ha ([1]; Preemergence, 31 g ai/ha, scale 0 to 100, 0 no effect, 100 complete control, read-out: Plant response rating, Johnsongrass) of 15%, a plant injury at 62 g/ha ([2]; 62 g ai/ha, preemergence, scale 0 (no effect) to 100 (complete control), read-out: Wheat plant response rating) of 0% and a plant injury at 125 g/ha ([2]; 125 g ai/ha, preemergence, scale 0 (no effect) to 100 (complete control), read-out: Wheat plant response rating) of 30%. For the same molecule, the plant injury at 250 g/ha ([2]; 250 g ai/ha, preemergence, scale 0 (no effect) to 100 (complete control), read-out: Wheat plant response rating) was 45%, the plant injury at 31 g/ha ([2]; Preemergence, 31 g ai/ha, scale 0 to 100, 0 no effect, 100 complete control, read-out: Plant response rating, Wheat) was 0% and the pest or weed control at 62 g/ha ([3]; 62 g ai/ha, preemergence, scale 0 (no effect) to 100 (complete control), read-out: Ryegrass, Italian plant response rating) was 55%. It also gave a pest or weed control at 125 g/ha ([3]; 125 g ai/ha, preemergence, scale 0 (no effect) to 100 (complete control), read-out: Ryegrass, Italian plant response rating) of 80%, a pest or weed control at 250 g/ha ([3]; 250 g ai/ha, preemergence, scale 0 (no effect) to 100 (complete control), read-out: Ryegrass, Italian plant response rating) of 90% and a pest or weed control at 31 g/ha ([3]; Preemergence, 31 g ai/ha, scale 0 to 100, 0 no effect, 100 complete control, read-out: Plant response rating, Ryegrass, Italian) of 5%. It also gave a pest or weed control at 125 g/ha ([4]; 125 g ai/ha, 0 to 100 scale where 0 is no effect and 100 is complete control, read-out: Plant response rating, Velvetleaf) of 100%, a pest or weed control at 500 g/ha ([4]; 500 g ai/ha, 0 to 100 scale, 0 no effect, 100 complete control, read-out: Plant response rating Velvetleaf) of 100% and a pest or weed control at 125 g/ha ([5]; 125 g ai/ha, postemergence, read-out: Plant response rating (0 to 100), Johnsongrass) of 5%. The pest or weed control at 250 g/ha ([5]; 250 g ai/ha, postemergence, read-out: Plant response rating (0 to 100), Johnsongrass) was 10%, the pest or weed control at 31 g/ha ([5]; Postemergence, 31 g ai/ha, scale 0 to 100 (0 no effect, 100 complete control), 13 to 15 days, read-out: Plant response rating, Johnsongrass) was 5% and the pest or weed control at 62 g/ha ([5]; Postemergence, 62 g ai/ha, scale 0 to 100 (0 no effect, 100 complete control), read-out: Plant response rating, Johnsongrass) was 5%. The plant injury at 125 g/ha ([6]; 125 g ai/ha, postemergence, read-out: Plant response rating (0 to 100), Corn) was 10%, the plant injury at 250 g/ha ([6]; 250 g ai/ha, postemergence, read-out: Plant response rating (0 to 100), Corn) was 10% and the Corn plant response rating (crop injury, 0 = no effect, 100 = complete kill) at 31 g/ha ([6]; Postemergence, 31 g ai/ha, scale 0 to 100 (0 no effect, 100 complete control), 13 to 15 days) was 5%. The Corn plant response rating (crop injury, 0 = no effect, 100 = complete kill) at 62 g/ha ([6]; Postemergence, 62 g ai/ha, scale 0 to 100 (0 no effect, 100 complete control)) was 10%, the plant injury at 125 g/ha ([7]; 125 g ai/ha, postemergence, read-out: Plant response rating (0 to 100), Wheat) was 5% and the plant injury at 250 g/ha ([7]; 250 g ai/ha, postemergence, read-out: Plant response rating (0 to 100), Wheat) was 5%. The plant injury at 31 g/ha ([7]; Postemergence, 31 g ai/ha, scale 0 to 100 (0 no effect, 100 complete control), 13 to 15 days, read-out: Plant response rating, Wheat) was 0%, the plant injury at 62 g/ha ([7]; Postemergence, 62 g ai/ha, scale 0 to 100 (0 no effect, 100 complete control), read-out: Plant response rating, Wheat) was 0% and the Corn plant response rating (crop injury, 0 = no effect, 100 = complete kill) at 125 g/ha ([8]; 125 g ai/ha, 0 to 100 scale where 0 is no effect and 100 is complete control) was 90%. It also gave a plant injury at 500 g/ha ([8]; 500 g ai/ha, 0 to 100 scale, 0 no effect, 100 complete control, read-out: Plant response rating Corn) of 90%, a pest or weed control at 125 g/ha ([9]; 125 g ai/ha, postemergence, read-out: Plant response rating (0 to 100), Crabgrass, Large) of 20% and a pest or weed control at 250 g/ha ([9]; 250 g ai/ha, postemergence, read-out: Plant response rating (0 to 100), Crabgrass, Large) of 40%. For the same molecule, the pest or weed control at 31 g/ha ([9]; Postemergence, 31 g ai/ha, scale 0 to 100 (0 no effect, 100 complete control), 13 to 15 days, read-out: Plant response rating, Crabgrass, Large) was 5%, the pest or weed control at 62 g/ha ([9]; Postemergence, 62 g ai/ha, scale 0 to 100 (0 no effect, 100 complete control), read-out: Plant response rating, Crabgrass, Large) was 15% and the plant injury at 62 g/ha ([10]; 62 g ai/ha, preemergence, scale 0 (no effect) to 100 (complete control), read-out: Corn plant response rating) was 5%. It also gave a plant injury at 125 g/ha ([10]; 125 g ai/ha, preemergence, scale 0 (no effect) to 100 (complete control), read-out: Corn plant response rating) of 60%, a plant injury at 250 g/ha ([10]; 250 g ai/ha, preemergence, scale 0 (no effect) to 100 (complete control), read-out: Corn plant response rating) of 70% and a Corn plant response rating (crop injury, 0 = no effect, 100 = complete kill) at 31 g/ha ([10]; Preemergence, 31 g ai/ha, scale 0 to 100, 0 no effect, 100 complete control) of 5%. It also gave a pest or weed control at 125 g/ha ([11]; 125 g ai/ha, postemergence, read-out: Plant response rating (0 to 100), Foxtail, Giant) of 70%, a pest or weed control at 250 g/ha ([11]; 250 g ai/ha, postemergence, read-out: Plant response rating (0 to 100), Foxtail, Giant) of 70% and a pest or weed control at 31 g/ha ([11]; Postemergence, 31 g ai/ha, scale 0 to 100 (0 no effect, 100 complete control), 13 to 15 days, read-out: Plant response rating, Foxtail, Giant) of 45%. It also gave a pest or weed control at 62 g/ha ([11]; Postemergence, 62 g ai/ha, scale 0 to 100 (0 no effect, 100 complete control), read-out: Plant response rating, Foxtail, Giant) of 50%, a pest or weed control at 125 g/ha ([12]; 125 g ai/ha, 0 to 100 scale where 0 is no effect and 100 is complete control, read-out: Plant response rating, Crabgrass, Large) of 100% and a pest or weed control at 500 g/ha ([12]; 500 g ai/ha, 0 to 100 scale, 0 no effect, 100 complete control, approx. 10 days, read-out: Crabgrass, Large plant response rating) of 100%. It also gave a pest or weed control at 125 g/ha ([13]; 125 g ai/ha, postemergence, read-out: Plant response rating (0 to 100), Nutsedge, Yellow) of 5%, a pest or weed control at 250 g/ha ([13]; 250 g ai/ha, postemergence, read-out: Plant response rating (0 to 100), Nutsedge, Yellow) of 30% and a pest or weed control at 31 g/ha ([13]; Postemergence, 31 g ai/ha, scale 0 to 100 (0 no effect, 100 complete control), 13 to 15 days, read-out: Plant response rating, Nutsedge, Yellow) of 0%. The pest or weed control at 62 g/ha ([13]; Postemergence, 62 g ai/ha, scale 0 to 100 (0 no effect, 100 complete control), read-out: Plant response rating, Nutsedge, Yellow) was 5%, the pest or weed control at 125 g/ha ([14]; 125 g ai/ha, 0 to 100 scale where 0 is no effect and 100 is complete control, read-out: Plant response rating, Barnyardgrass) was 90% and the pest or weed control at 500 g/ha ([14]; 500 g ai/ha, 0 to 100 scale, 0 no effect, 100 complete control, read-out: Plant response rating Barnyardgrass) was 100%. For the same molecule, the pest or weed control at 62 g/ha ([15]; 62 g ai/ha, preemergence, scale 0 (no effect) to 100 (complete control), read-out: Nutsedge, Yellow plant response rating) was 10%, the pest or weed control at 125 g/ha ([15]; 125 g ai/ha, preemergence, scale 0 (no effect) to 100 (complete control), read-out: Nutsedge, Yellow plant response rating) was 40% and the pest or weed control at 250 g/ha ([15]; 250 g ai/ha, preemergence, scale 0 (no effect) to 100 (complete control), read-out: Nutsedge, Yellow plant response rating) was 45%. It also gave a pest or weed control at 31 g/ha ([15]; Preemergence, 31 g ai/ha, scale 0 to 100, 0 no effect, 100 complete control, read-out: Plant response rating, Nutsedge, Yellow) of 0%.
